Data from patent publication US9018211B2, “Inhibitors of the renal outer medullary potassium channel” (Merck Sharp & Dohme Corp., priority 2009, dated 2015).

Assays:
Assay type in all cases: cell-based
hROMK1 (Kir1.1) = hROMK1 (Kir1.1) (Homo sapiens (Human), UniProt P48048); experiment: 86Rb+ Efflux Assay; conditions: CHO-DHFR- cells stably expressing hROMK1; 35 min incubation
Method: (§1) Several assays may be used to measure functional inhibition of the ROMK channel by compounds of the instant invention. One primary assay that can be used is a functional ^86Rb^+ efflux assay that measures the ability of ROMK to permeate ^86Rb^+, in the absence or presence of test compound. Under control conditions, cells loaded with ^86Rb^+ and incubated in Rb^+-free medium display a time-dependent efflux of the isotope, the rate of which depends on number of functional channels. […] This assay has been established with cell lines expressing either human, rat or dog ROMK channels, and can operate in 96- or 384-well format. Importantly, the human, rat, and dog ^86Rb^+ efflux assays can be carried out in the presence of up to 100% serum allowing, therefore, an accurate estimation of the effect of protein binding on the inhibitory activity of compounds of interest. Another ROMK functional assay makes use of the ability of thallium to permeate through open ROMK channels and increase the fluorescence of a dye previously loaded into the cells. Under control conditions, cells loaded with dye and exposed to thallium-containing medium display a time-dependent increase in fluorescence, the rate of which depends on number of functional channels. When cells are incubated in the presence of a channel inhibitor, the increase in fluorescence is attenuated in a concentration-dependent manner, and IC50 values of inhibition by compounds can be accurately determined. This assay has been established with cell lines expressing either human, or rat ROMK channels, and operates in 384-well format. Another assay for evaluation of the compounds of the instant invention and for evaluation of mechanism of action of compounds of Formula I relies on the measurement of the electrical current that is generated as potassium permeates through the channel. For these electrophysiological experiments, three different platforms, IonWorks, QPatch, or manual patch clamp, are used, depending on the experimental protocol under consideration. IonWorks operates in a 384-well format and allows accurate determination of IC50 values for inhibitors.

Kir1.1 (ROMK1) = Kir1.1 (ROMK1) (Homo sapiens (Human), UniProt P48048); experiment: ROMK Electrophysiology Assay (IonWorks Quattro whole cell voltage clamp); conditions: Chinese hamster ovary cells stably expressing Kir1.1; block at voltage step to 0 mV, 6 min compound incubation
Method: as §1
Chinese hamster ovary cells stably expressing Kir1.1 channels were maintained in T-75 flasks in cell culture media in a humidified 10% CO2 incubator at 37° C. Prior to an experiment, Kir1.1 expression was induced by overnight incubation with 1 mM sodium butyrate. […] After centrifugation, the cell pellet was resuspended in approximately 4.0 ml of bath solution and placed in the IonWorks instrument. The intracellular solution consisted of (in mM): 80 K gluconate, 40 KCl, 20 KF, 3.2 MgCl2, 3 EGTA, 5 Hepes, pH 7.4. […] Current amplitudes were measured using the IonWorks software.

hROMK (hKir1.1) = hROMK (hKir1.1) (Homo sapiens (Human), UniProt P48048); experiment: Thallium Flux Assay; conditions: HEK293 cells stably expressing hROMK; FLIPR-Tetra, 30 min incubation
Method: as §1
To dislodge the cell, gently bang the side of the flask with your hand. […] Centrifuge at 1,500 rpm for 6 min followed by resuspension in complete growth media and determine cell concentration. […] Under ideal growth conditions and appropriate tissue culture practices, this cell line is stable for 40-45 passages.
FluxOR Kit Components (Invitrogen F10017)
• FluxOR™ Reagent (Component A) • FluxOR™ Assay Buffer (Component B)—10× Concentrate • PowerLoad™ Concentrate (Component C)—100× Concentrate • Probenecid (Component D)—Lyophilized sample is kept at −20° C. Water soluble, 100× after solubilization in 1 ml water. […] Store at 4° C. • Thallium sulfate (Tl2SO4) Concentrate (Component G)—50 mM in water. […] Can be stored at room temperature • Stimulant Buffer (prepared at 5× final concentration in 1× FluxOR™ Chloride-Free Buffer): 7.5 mM Thallium sulfate and 0.75 mM Potassium sulfate (to give a final assay concentration of 3 mM Thallium/0.3 mM Potassium). Store at 4° C. when not in use. If kept sterile, this solution is good for months.

Kir1.1 (ROMK1), sequence (P48048 whole entry, species assumed): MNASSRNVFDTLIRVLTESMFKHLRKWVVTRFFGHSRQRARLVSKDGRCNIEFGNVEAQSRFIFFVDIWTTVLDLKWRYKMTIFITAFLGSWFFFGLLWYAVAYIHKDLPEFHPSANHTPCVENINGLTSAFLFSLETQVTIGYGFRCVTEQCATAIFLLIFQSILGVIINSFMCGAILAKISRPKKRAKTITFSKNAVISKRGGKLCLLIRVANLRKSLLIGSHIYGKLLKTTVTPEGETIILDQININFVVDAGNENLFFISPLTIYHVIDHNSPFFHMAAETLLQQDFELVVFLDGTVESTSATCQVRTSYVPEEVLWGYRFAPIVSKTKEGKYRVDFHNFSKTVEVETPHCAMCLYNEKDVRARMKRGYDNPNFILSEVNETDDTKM
hROMK (hKir1.1), sequence (P48048 whole entry): as the sequence (P48048 whole entry, species assumed) above
hROMK1 (Kir1.1), sequence (P48048 whole entry): as the sequence (P48048 whole entry, species assumed) above

O=C1OCc2c1ccc(C(O)CN1CCN(CC(O)c3ccc4c(c3Cl)COC4=O)CC1)c2Cl (centres unmarked) [Example 5]
IC50 (hROMK1 (Kir1.1)): 0.088 µM
IC50 (Kir1.1 (ROMK1)): 0.007 µM
IC50 (hROMK (hKir1.1)): 0.013 µM

Cc1c(CCN2CCN(CC(O)c3ccc4c(c3C)COC4=O)CC2)ccc2c1COC2=O (centres unmarked) [Example 12, 5-(1-hydroxy-2-{4-[2-(4-methyl-1-oxo-1,3-dihydro-2-benzofuran-5-yl)ethyl]piperazine-1-yl}ethyl)-4-methyl-2-benzofuran-1(3H)-one]
IC50 (hROMK1 (Kir1.1)): 0.046 µM
IC50 (Kir1.1 (ROMK1)): 0.013 µM
IC50 (hROMK (hKir1.1)): 0.006 µM

Cc1c(C(O)CN2CCN(CC3CCc4c3ccc3c4COC3=O)CC2)ccc2c1COC2=O (centres unmarked) [Example 20, 6-({4-[2-hydroxy-2-(4-methyl-1-oxo-1,3-dihydro-2-benzofuran-5-yl)ethyl]piperazin-1-yl}methyl)-1,6,7,8-tetrahydro-3H-indeno[4,5-c]furan-3-one]
IC50 (hROMK1 (Kir1.1)): 0.036 µM
IC50 (Kir1.1 (ROMK1)): 0.014 µM
IC50 (hROMK (hKir1.1)): 0.007 µM

COc1cc(C(O)CN2CCN(CCc3ccc4c(c3C)COC4=O)CC2)c(F)cc1C#N (centres unmarked) [Example 24, 5-fluoro-4-(1-hydroxy-2-{4-[2-(4-methyl-1-oxo-1,3-dihydro-2-benzofuran-5-yl)ethyl]piperazin-1-yl}ethyl)-2-(methyloxy)benzonitrile]
IC50 (hROMK1 (Kir1.1)): 0.13 µM
IC50 (hROMK (hKir1.1)): 0.026 µM

Cc1c(C(O)CN2CCN(CC3CCc4c3ccc(F)c4C#N)CC2)ccc2c1COC2=O (centres unmarked) [Example 55, 5-fluoro-1-({4-[2-hydroxy-2-(4-methyl-1-oxo-1,3-dihydro-2-benzofuran-5-yl)ethyl]piperazin-1-yl}methyl)-2,3-dihydro-1H-indene-4-carbonitrile]
IC50 (hROMK1 (Kir1.1)): 0.047 µM
IC50 (Kir1.1 (ROMK1)): 0.023 µM
IC50 (hROMK (hKir1.1)): 0.015 µM
